≈ marks a conversion by molar mass, not a printed value. Entries after “also recorded” stand apart in the source; their conditions may differ. Marks after values point to notes of the source that are not given here.
What was measured:
[1] = test system: HUVEC (human umbilical vein endothelial cells); test: Cell proliferation, VEGF-Induced (307900), antagonist mode; type: cell-based; details: concurrent batch 305353, antagonist, read-out: Concurrent IC50/EC50
Procedure: Measurement of proliferation inhibition activity of VEGF-Induced cell of vascular endothelial cells by purified red pigment from Saw palmetto.
The final concentration in the test was given as 100 μg/mL and 10 μg/mL.
HUVEC cells were incubated in air atmosphere of 5% CO2 at 37° C. The culture medium used was Endothelial Cell Growth Medium with 10% fetal bovine serum (FBS). The medium for assay was
M199 medium supplemented with 10% FBS and 10 μg/mL of Heparin.
Aliquots of HUVEC (1.1×10^5 cells/ well) were pre-seeded in the 96-well TC plate in an incubator at 5% CO2, 37° C. Test compound solution or vehicle (DMSO) was then added per well and incubated at 5% CO2, 37° C. for 20 minutes. Thereafter, VEGF165 (0.2 nM) was added and incubated for 48 hours. 48 hours later, the cells were washed with HBSS once. Then 5 μg/mL of the fluorescence reagent, CalceinAM dye (BD Biosciences, USA) was added and incubated for another 50 minutes. After incubation, fluorescence intensity was detected by Micro plate reader. More than 50% of suppression for VEGF165 induced proliferation was indicated for the significant antagonistic activity of the test reagent.

HuVECs = test: Tube formation of HuVECs in the presence of VEGF; type: cell-based, human; details: 30 μM, not showing cytotoxicity
Procedure: In turn, whether NYG-1 can suppress angiogenesis ability of HuVECs was tested.

[2] = test system: Human umbilical vein endothelial cells (HUVEC); test: Angiogenesis, Tube Formation (Assay#368000): HUVEC tube network on Matrigel; type: cell-based
Procedure: Following biological test results were conducted by Ricerca Bioscience, LLC (http://www.Ricerca.com.) under a contract (Assay#368000, Tumor, Angiogenesis, Tube Formation) with the crystalized red pigment prepared in Example 1.
Human umbilical vein endothelial cells (HUVEC) differentiate to capillary-like structures and form vessel network on Matrigel in the presence of endothelial cell growth supplements. The anti-angiogenic activity of a test compound can be assessed by observing continuity of vessel network compared with untreated control. Test compound (crystallized red pigment prepared in […]) was tested for an effect on anti-angiogenesis at five final concentrations of 100, 10, 1, 0.1 and 0.01 μg/mL.
The crystalized red pigment prepared in Example 1 was dissolved in 100% dimethyl sulfoxide (DMSO) and then diluted with sterile distilled water to obtain solutions of […] in 40% DMSO. The solutions were diluted 100-fold with culture medium to generate final concentrations of 0.01, 0.1, 1, 10 and 100 μg/mL.
HUVEC was purchased from American Type Culture Collection (ATCC CRL-1730). HUVEC cells were incubated in 5% CO2 atmosphere of at 37° C. The culture medium used was Endothelial Cell Growth Medium supplemented with 10v/v % fetal bovine serum and 1% antifungal antibiotic.
Matrigel matrix was thawed, kept on ice at 4° C. and 50μL of the matrix was transferred to each well of a 96-microwell culture plate. The plate was incubated at 37° C. for at least one hour to allow the matrix solution to solidify before treatment.
Aliquots of […] of HUVEC suspension (about 1.5×10^4 cells/well) were placed in the 96-well matrigel plate. Two microliters per well of test compound solution or vehicle (40% DMSO) was then added and incubated at 5% CO2, 37° C. for 18 hours (in duplicate). The final concentration of DMSO was 0.4%. The test compound was evaluated at concentrations of 100, 10, 1, 0.1 and 0.01 μg/mL. At the end of incubation, a tube network formed by endothelial cell in each wells was evaluated by photomicroscopy (magnification of 40×) and photographed. The total length of tube network was measured from each photograph (FIG. 1).
The reduction of the total length of tube network in test compound treatment to the total length of tube network in vehicle treatment control indicates anti-angiogenic activity. The minimum inhibitory concentration (MIC) and 50% inhibition concentration (IC50) were determined to assess effect of the test substance on anti-angiogenesis.

HuVEC cells = test: Cytotoxicity / growth of vascular endothelial cells; type: cell-based, human; details: a few hundred micro mole level
Description: The growth activity of cells under exposure to NYG-1 was detected by using HuVEC cells which is an in vitro cell model. […] Further, suramin was used as a positive control.

Cc1cc(C)c(/C=C2\C(=O)Nc3ccccc32)[nH]1 [SU5416]
IC50 [1]: 0.12 µM

Cc1ccc(C(=O)Nc2ccc(S(=O)(=O)O)c3cc(S(=O)(=O)O)cc(S(=O)(=O)O)c23)cc1NC(=O)c1cccc(NC(=O)Nc2cccc(C(=O)Nc3cc(C(=O)Nc4ccc(S(=O)(=O)O)c5cc(S(=O)(=O)O)cc(S(=O)(=O)O)c45)ccc3C)c2)c1 [Suramin]
blood vessel formation (in words) (HuVECs): can suppress blood vessel formation | effect on tube formation (in words) ([2]; 30 μM): almost no tube formation; also recorded: completely inhibited | effect on tube formation (in words) ([2]; 30 and 15 μM): significant inhibition | IC50 ([2]; Homo sapiens, HUVEC): 16 µM | % Inhibition of total tube length (mean ± SEM) ([2]; suramin concentration 1 (head prints μg/mL)): 3 ± 4% | % Inhibition of total tube length (mean ± SEM) ([2]; suramin concentration 3 (head prints μg/mL)): 4 ± 5% | % Inhibition of total tube length (mean ± SEM) ([2]; suramin concentration 10 (head prints μg/mL)): 8 ± 1% | % Inhibition of total tube length (mean ± SEM) ([2]; suramin concentration 15 (head prints μg/mL)): 42 ± 9^ab % | % Inhibition of total tube length (mean ± SEM) ([2]; suramin concentration 30 (head prints μg/mL)): 100 ± 0^a % | MIC (minimum inhibitory concentration) ([2]; tube formation): 15 µM (≈ 19.5 µg/mL) | cytotoxicity on HuVEC cells (HuVEC cells): strong cytotoxicity

Source: US10377902B2, “Crystallized red pigment, method of producing a recrystallized red pigment and a method for improving the appearance of or preventing wrinkles” (priority 2013, dated 2019)
